What was measured:
[1] = system: K562; assay: Cytotoxicity against human K562 cells by alamar blue assay; assay type: functional
[2] = system: RPMI-8226; assay: Cytotoxicity against human RPMI8226 cells by alamar blue assay; assay type: functional
[3] = system: A549; assay: Cytotoxicity against human A549 cells by alamar blue assay; assay type: functional
[4] = system: DU-145; assay: Cytotoxicity against human DU145 cells by alamar blue assay; assay type: functional
[5] = Cytotoxicity against human LNCaP-FGC cells by alamar blue assay; assay type: functional; conditions: LNCaP-Clone-FGC
[6] = system: A2780; assay: Cytotoxicity against human A2780 cells by alamar blue assay; assay type: functional
[7] = system: MCF7; assay: Cytotoxicity against human MCF7 cells by alamar blue assay; assay type: functional
[8] = system: LOX IMVI; assay: Cytotoxicity against human LOXIMVI cells by alamar blue assay; assay type: functional
[9] = system: Nucleic Acid; assay: Induction of Escherichia coli pUC18 DNA interstrand crosslinking activity assessed as time required to reach peak; assay type: nucleic-acid assay

Row | SMILES | GI50 [1] [pM] | GI50 [2] [pM] | GI50 [3] [pM] | GI50 [4] [pM] | GI50 [5] [pM] | GI50 [6] [pM] | GI50 [7] [pM] | GI50 [8] [pM] | Activity [9] [h]
1 | COc1ccc(C2=CN3C(=O)c4cc(OC)c(OCCCOc5cc6c(cc5OC)C(=O)N5C=C(c7ccc(OC)cc7)C[C@H]5C=N6)cc4N=C[C@@H]3C2)cc1 | 13 | 5.1 | 33 | 15.4 | 2.7 | 2.4 | 18.6 | 22.5 | 2
2 | C=C1C[C@H]2C=Nc3cc(OCCCOc4cc5c(cc4OC)C(=O)N4CC(=C)C[C@H]4C=N5)c(OC)cc3C(=O)N2C1 [SJG-136] | 419 | – | – | – | – | – | – | – | –
